Like-named read-outs stand apart in the source and are kept apart here.

The record followed here is patent US6951856B2, “Arylethene-sulfonamides” (Actelion Pharmaceuticals Ltd., priority 2000, dated 2005).

Assay [1] deals with T1, human recombinant ETA receptors (Homo sapiens, UniProt P25101).
T1 construct: expressed in transfected cells; host or cells: CHO cells (microsomal membranes)
T1 sequence (P25101 21-427): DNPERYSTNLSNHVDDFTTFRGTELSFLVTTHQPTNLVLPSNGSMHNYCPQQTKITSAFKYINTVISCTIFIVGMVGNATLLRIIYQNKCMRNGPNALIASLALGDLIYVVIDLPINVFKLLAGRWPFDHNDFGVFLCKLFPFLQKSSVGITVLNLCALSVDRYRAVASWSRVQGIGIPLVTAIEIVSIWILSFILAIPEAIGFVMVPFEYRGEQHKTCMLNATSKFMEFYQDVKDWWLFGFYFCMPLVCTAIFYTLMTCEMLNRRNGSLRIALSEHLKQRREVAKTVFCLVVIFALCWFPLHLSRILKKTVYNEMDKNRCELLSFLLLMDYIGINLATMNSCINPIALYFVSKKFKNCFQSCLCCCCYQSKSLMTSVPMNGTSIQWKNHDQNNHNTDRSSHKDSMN
Nature of the assay: Inhibition of [125I]ET-1 binding to membranes from CHO cells carrying human ETA receptors. As to conditions: CHO cell membranes, 8 pM [125I]ET-1, 2 h at 20° C. The method, then:
(§1) 1) Inhibition of Endothelin Binding to Membranes from CHO Cells Carrying Human ET Receptors
(§2) For competition binding studies, membranes of CHO cells expressing human recombinant ETA or ETB receptors were used. Microsomal membranes from recombinant CHO cells were prepared and the binding assay made as previously described (Breu V., et al, FEBS Lett 1993; 334:210).
(§3) The assay was performed in 200 uL 50 mM Tris/HCl buffer, pH 7.4, including 25 mM MnCl2, 1 mM EDTA and 0.5% (w/v) BSA in polypropylene microtiter plates. […] After 2 h, the membranes were filtered on filterplates containing GF/C filters (Unifilterplates from Canberra Packard S.A. Zürich, Switzerland). To each well, 50 uL of scintillation cocktail was added (MicroScint 20, Canberra Packard S.A. Zürich, Switzerland) and the filter plates counted in a microplate counter (TopCount, Canberra Packard S.A. Zürich, Switzerland).
(§4) All the test compounds were dissolved, diluted and added in DMSO.

The target of assay [2] is T2, human recombinant ETB receptors (Homo sapiens, UniProt P24530).
T2 construct: expressed in transfected cells; host or cells: CHO cells (microsomal membranes)
T2 sequence (P24530 27-442): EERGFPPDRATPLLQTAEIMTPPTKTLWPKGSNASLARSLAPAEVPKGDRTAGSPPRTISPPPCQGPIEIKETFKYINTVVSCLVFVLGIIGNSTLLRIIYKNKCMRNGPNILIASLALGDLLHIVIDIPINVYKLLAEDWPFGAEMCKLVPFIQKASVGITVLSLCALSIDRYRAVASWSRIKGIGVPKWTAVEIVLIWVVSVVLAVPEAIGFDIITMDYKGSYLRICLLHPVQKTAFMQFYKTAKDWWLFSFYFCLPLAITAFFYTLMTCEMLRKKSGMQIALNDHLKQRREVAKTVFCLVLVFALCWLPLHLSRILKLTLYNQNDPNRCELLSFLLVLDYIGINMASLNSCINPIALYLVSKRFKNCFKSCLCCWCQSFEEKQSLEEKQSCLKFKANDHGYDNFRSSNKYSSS
Nature of the assay: Inhibition of [125I]ET-1 binding to membranes from CHO cells carrying human ETB receptors. The method, then:
as §1, §2, §3, §4

The next assay concerns the target T3, ETA receptors (Rattus norvegicus, UniProt P26684).
T3 construct: The thoracic aorta or trachea were excised, dissected and cut in 3-5 mm rings; from tissue; host or cells: thoracic aorta rings of adult Wistar rats, endothelium removed
T3 sequence (P26684 21-426): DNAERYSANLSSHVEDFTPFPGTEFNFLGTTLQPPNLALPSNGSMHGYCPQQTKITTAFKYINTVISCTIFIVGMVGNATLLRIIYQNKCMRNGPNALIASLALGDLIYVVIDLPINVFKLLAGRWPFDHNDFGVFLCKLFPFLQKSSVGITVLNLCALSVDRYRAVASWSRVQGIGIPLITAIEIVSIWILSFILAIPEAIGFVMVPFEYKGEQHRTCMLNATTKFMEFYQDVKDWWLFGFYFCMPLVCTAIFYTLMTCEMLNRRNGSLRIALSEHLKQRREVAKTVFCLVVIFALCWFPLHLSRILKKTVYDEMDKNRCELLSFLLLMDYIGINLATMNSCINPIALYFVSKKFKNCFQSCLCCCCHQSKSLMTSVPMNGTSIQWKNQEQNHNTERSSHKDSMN
Nature of the assay: Inhibition of endothelin-1-induced contractions on isolated rat aortic rings. In kind it is cell-based. The method, then: (§5) 2) Inhibition of Endothelin-Induced Contractions on Isolated Rat Aortic Rings (ETA Receptors) and Rat Tracheal Rings (ETB Receptors):
(§6) Adult Wistar rats were anesthetized and exsanguinated. The thoracic aorta or trachea were excised, dissected and cut in 3-5 mm rings. The endothelium/epithelium was removed by gentle rubbing of the intimal surface. Each ring was suspended in a 10 ml isolated organ bath filled with Krebs-Henseleit solution (in mM; NaCl 115, KCl 4.7, MgSO4 1.2, KH2PO4 1.5, NaHCO3 25, CaCl2 2.5, glucose 10) kept at 37° and gassed with 95% O2 and 5% CO2. The rings were connected to force transducers and isometric tension was recorded (EMKA Technologies SA, Paris, France). The rings were stretched to a resting tension of 3 g (aorta) or 2 g (trachea). […] The functional inhibitory potency of the test compound was assessed by calculating the concentration ratio, i.e. the shift to the right of the EC50 induced by different concentrations of test compound. EC50 is the concentration of endothelin needed to get a half-maximal contraction, pA2 is the negative logarithm of the antagonist concentration which induces a two-fold shift in the EC50 value.

For the next assay, the target named is T4, ETB receptors (Rattus norvegicus, UniProt P21451).
T4 construct: The thoracic aorta or trachea were excised, dissected and cut in 3-5 mm rings; from tissue; host or cells: tracheal rings of adult Wistar rats, epithelium removed
T4 sequence (P21451 27-442): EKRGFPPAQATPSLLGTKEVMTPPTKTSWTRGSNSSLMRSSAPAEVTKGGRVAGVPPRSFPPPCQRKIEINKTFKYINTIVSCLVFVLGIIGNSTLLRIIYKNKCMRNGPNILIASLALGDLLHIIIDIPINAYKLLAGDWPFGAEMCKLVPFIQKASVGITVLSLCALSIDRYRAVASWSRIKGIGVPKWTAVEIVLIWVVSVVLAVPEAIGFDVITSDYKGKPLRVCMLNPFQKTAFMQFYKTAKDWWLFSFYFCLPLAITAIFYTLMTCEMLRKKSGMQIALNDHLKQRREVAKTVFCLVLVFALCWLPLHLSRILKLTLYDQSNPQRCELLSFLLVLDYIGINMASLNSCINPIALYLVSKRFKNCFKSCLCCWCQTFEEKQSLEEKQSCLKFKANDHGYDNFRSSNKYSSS
Put plainly: Inhibition of sarafotoxin S6c-induced contractions on isolated rat tracheal rings. The format is cell-based. The method, then: as §5, §6

Setting [3] is: read-out: pA2 value ETA (converted).

Regarding `Cc1ccc(-c2c(NS(=O)(=O)/C=C/c3cccs3)ncnc2OCCOc2ncc(Br)cn2)cc1` [Example 67], the IC50 (usually the concentration that inhibits the measured activity by half) was 7.8 nM in assay [1] and 752 nM in assay [2]. Also, the Kb on ETA receptors (setting [3]) was 0.316 nM.

With `COc1ccccc1Oc1c(NS(=O)(=O)/C=C/c2ccccc2)nc(N2CCOCC2)nc1OCCOc1ncccn1` [Example 194], the IC50 was found to be 7.8 nM in assay [1] and 627 nM in assay [2]. For the same compound, the Kb is 31.6 nM at ETA receptors (setting [3]) and 316 nM at ETB receptors.

Regarding `COc1ccccc1Oc1c(NS(=O)(=O)/C=C/c2cccs2)nc(-c2ccncc2)nc1OCCOc1ncc(Br)cn1` [Example 173], the IC50 in assay [1] was 4.2 nM; in assay [2], 976 nM. Moreover, the Kb is 1.48 nM on ETA receptors (setting [3]) and 79.4 nM on ETB receptors.

Turning to `COc1ccccc1Oc1c(NS(=O)(=O)/C=C/c2ccccc2)ncnc1OCCOc1ncc(Br)cn1` [Example 211], the IC50 in assay [1] stood at 38 nM; in assay [2], 2640 nM. In addition, the figures for the Kb on ETA receptors (setting [3]) and at ETB receptors were 24.5 nM and 224 nM, respectively.

`COc1ccccc1Oc1c(NS(=O)(=O)/C=C/c2cccs2)nc(-c2ccncc2)nc1OCCOc1ncccn1` [Example 174]: the results for the IC50 in assay [1] and in assay [2] were 6.7 nM and 1010 nM, respectively. Also, at ETA receptors (setting [3]), the Kb was 13.2 nM.

As for `Cc1ccc(-c2c(NS(=O)(=O)/C=C/c3ccccc3)ncnc2OCCOc2ncc(Cl)cn2)cc1` [Example 14], the IC50 amounted to 4.75 nM in assay [1] and 841 nM in assay [2]. The Kb on ETA receptors (setting [3]) is 2.14 nM.

`O=S(=O)(/C=C/c1ccccc1)Nc1ncnc(OCCOc2ncc(Br)cn2)c1-c1ccc(Br)cc1` [Example 85]: the figures for the IC50 in assay [1] and in assay [2] were 3.8 nM and 238 nM, respectively. The Kb on ETA receptors (setting [3]) is 0.851 nM.

As to `O=S(=O)(/C=C/c1ccccc1)Nc1ncnc(OCCOc2ncc(Br)cn2)c1-c1ccc(Cl)cc1` [Example 43], the half-inhibitory concentration (IC50) came out at 4.6 nM in assay [1] and 408 nM in assay [2]. Besides, the Kb on ETA receptors (setting [3]) is 0.851 nM.

For `O=S(=O)(/C=C/c1ccccc1)Nc1ncnc(OCCOc2ncc(Br)cn2)c1-c1ccccc1` [Example 92], the IC50 in assay [1] turned out to be 20 nM; in assay [2] it was 7470 nM. For the same compound, the Kb on ETA receptors (setting [3]) was 12.3 nM.

As to `Cc1ccc(-c2c(NS(=O)(=O)/C=C/c3ccccc3)nc(-c3ccncc3)nc2OCCOc2ncc(Br)cn2)cc1` [Example 80], the IC50 in assay [1] was 19.7 nM; in assay [2] it was 2570 nM. In addition, the results for the Kb on ETA receptors (setting [3]) and at ETB receptors were 4.47 nM and 6170 nM, respectively.

In the case of `Cc1ccc(-c2c(NS(=O)(=O)/C=C/c3ccccc3)ncnc2OCCOc2ncc(F)cn2)cc1` [Example 15], the IC50 in assay [1] is 18 nM; in assay [2], 2130 nM. For the same compound, the Kb at ETA receptors (setting [3]) is 26.9 nM.

Take `COc1ccccc1Oc1c(NS(=O)(=O)/C=C/c2ccccc2)nc(N2CCOCC2)nc1OCCOc1ncc(Br)cn1` [Example 193]: the IC50 in assay [1] stood at 2.6 nM; in assay [2], 537 nM. Besides, the Kb at ETA receptors (setting [3]) was 2.51 nM; at ETB receptors, 126 nM.

Turning to `COc1ccccc1Oc1c(NS(=O)(=O)/C=C/c2ccccc2)nc(N2CCOCC2)nc1OCCOc1ncc(Cl)cn1` [Example 195], the IC50 in assay [1] stood at 6 nM; in assay [2], 293 nM. In addition, the Kb at ETA receptors (setting [3]) is 9.12 nM.

On to `COc1ccccc1Oc1c(NS(=O)(=O)/C=C/c2ccccc2)nc(N2CCOCC2)nc1OCCOc1ncc(F)cn1` [Example 196], for which the results for the IC50 in assay [1] and in assay [2] were 4.7 nM and 427 nM, respectively. For the same compound, the Kb at ETA receptors (setting [3]) was 20.9 nM.

As for `Cc1ccc(-c2c(NS(=O)(=O)/C=C/c3ccccc3)ncnc2OCCOc2ncc(Br)cn2)cc1` [Example 1, 2-phenyl-ethenesulfonic acid {6-[2-(5-bromo-pyrimidin-2-yloxy)-ethoxy]-5-p-tolyl-pyrimidin-4-yl}-amide], the IC50 was determined as 1.8 nM in assay [1] and 569 nM in assay [2]. Also, the Kb at ETA receptors was 1.86 nM; at ETB receptors it was 81.3 nM.

On to `COc1ccccc1Oc1c(NS(=O)(=O)/C=C/c2ccccc2)nc(-c2ncccn2)nc1OCCOc1ncccn1` [Example 152], for which the IC50 in assay [1] came to 43.3 nM; in assay [2], 4820 nM. Also, the Kb was 20.4 nM at ETA receptors (setting [3]) and 912 nM at ETB receptors.

As for `Cc1ccc(-c2c(NS(=O)(=O)/C=C/c3ccccc3)nc(-c3ncccn3)nc2OCCOc2ncc(Br)cn2)cc1` [Example 140], the IC50 in assay [1] was determined as 12.5 nM; in assay [2], 1090 nM. For the same compound, the Kb at ETA receptors (setting [3]) is 1.86 nM.

In the case of `O=S(=O)(/C=C/c1ccc(Cl)cc1)Nc1ncnc(OCCOc2ncc(Br)cn2)c1-c1ccc(Cl)cc1` [Example 54], the IC50 was 14 nM in assay [1] and 183 nM in assay [2].

For `O=S(=O)(/C=C/c1ccccc1)Nc1nc(N2CCCCC2)nc(OCCOc2ncc(Br)cn2)c1-c1ccccc1` [Example 116], the IC50 in assay [1] was 24.9 nM; in assay [2], > 10000 nM.
